Tested on: CHP212 cells
Test: Measurement of fluctuation in the amount of Aβ accumulation in cultured nerve cells
Type: cell-based
Details: cultured nerve cells (human neuroblastoma CHP212); Aβ in the medium by ELISA (Human/Rat Amyloid β1-42 kit) 48 hours after addition of test substance; 10^-12 M to 10^-6 M; versus DMSO control (100%), FIG. 1
Excerpt: FIG. 1 is a diagram showing results of measuring fluctuation caused by a test substance of the formula (a) in the amount of Aβ accumulation in cultured nerve cells (CHP212 cells).
In the diagram, each column represents, starting from the left, a result of measurement obtained in a well to which the test substance has been added so that its final concentration can be 10^−12M (10^−12 M), in a well to which the test substance has been added so that its final concentration can be 10^−11M (10^−11M), in a well to which the test substance has been added so that its final concentration can be 10^−10M (10^−10M), in a well to which the test substance A has been added so that its final concentration can be 10^−9M (10^−9M), in a well to which the test substance has been added so that its final concentration can be 10^−8M (10^−8M), in a well to which the test substance has been added so that its final concentration can be 10^−7M (10^−7M), and in a well to which the test substance has been added so that its final concentration can be 10^−6M (10^−6 M). The results are shown in % by setting a result obtained in a control well to which only a solvent (DMSO) has been added as 100%. […]

O=c1cc(C(F)(F)F)c2cc(N(CC(F)(F)F)CC(F)(F)F)ccc2[nH]1 [formula (a)]
amount of Aβ accumulation: markedly decreased

Source: US20100204216A1, “PHARMACEUTICAL COMPOSITION FOR […]-beta PROTEIN ACCUMULATION” (SUMMITOMO CHEMICAL COMPANY LIMITED, priority 2007, published 2010)
